The record followed here is patent US5753648A, “Tricyclic benzazepine vasopressin antagonists” (American Cyanamid Company, priority 1996, dated 1998).

Counter-ions that a name gives are not always drawn.

In test [1] the target is T1, Rat Kidney Medullary V2 Receptors (Rattus norvegicus, UniProt Q00788).
T1 construct: Medullary tissues from rat kidneys are dissected out; from tissue; host or cells: rat kidney medulla membranes
In words: biochemical. Type of test: binding. As to the method: Binding Assay to Rat Kidney Medullary V2 Receptors
Medullary tissues from rat kidneys are dissected out, cut into small pieces and soaked in a […] sodium chloride solution containing 1.0 mM EDTA with many changes of the liquid phase, until the solution is clear of blood. The tissue is homogenized in a 0.25M sucrose solution containing 1.0 mM EDTA and 0.1 mM PMSF using a Potter-Elvehjem homogenizer with a teflon pestle. The homogenate is filtered through several layers (4 layers) of cheese cloth. The filtrate is rehomogenized using a dounce homogenizer, with a tight fitting pestle. The final homogenate is centrifuged at 1500×g for 15 min. The nuclear pellet is discarded and the supernatant fluid recentrifuged at 40,000×g for 30 min. The resulting pellet formed contains a dark inner part with the exterior, slightly pink. The pink outer part is suspended in a small amount of 50.0 mM Tris.HCl buffer, pH 7.4. The protein content is determined by the Lowry's method (Lowry et al, J. Biol. Chem., 1953). The membrane suspension is stored at -70° C., in 50.0 mM Tris.HCl, containing 0.2% inactivated BSA and 0.1 mM PMSF in aliquots of 1.0 ml containing 10.0 mg protein per ml of suspension until use in subsequent binding experiments.
For binding experiments, the following is added in μl volume to wells of a 96 well format of a microtiter plate: 100.0 μl of 100.0 mM Tris.HCl buffer containing 0.2% heat inactivated BSA, 10.0 mM MgCl2 and a mixture of protease inhibitors: leupeptin, 1.0 mg %; aprotinin, 1.0 mg %; 1,10-phenanthroline, 2.0 mg %; trypsin inhibitor, 10.0 mg % and 0.1 mM PMSF, 20.0 μl of [^3 H] Arginine^8, vasopressin (S.A. 75.0 Ci/mmole) at 0.8 nM and the reaction initiated by the addition of 80.0 μl of tissue membranes (200.0 μg tissue protein). The plates are left undisturbed on the bench top for 120 min. to reach equilibrium. Non-specific binding is assessed in the presence of 1.0 μM of unlabeled ligand, added in 20 μl volume. For test compounds, these are solubilized in 50% dimethylsulfoxide (DMSO) and added in 20.0 μl volume to a final incubation volume of 200 μl. Upon completion of binding, the content of each well is filtered off, using a Brandel® cell Harvester (Gaithersburg, Md.). The radioactivity trapped on the filter disk by the ligand-receptor complex is assessed by liquid scintillation counting in a Packard LS Counter, with an efficiency of 65% for tritium. The data are analyzed for IC50 values by the LUNDON-2 program for competition (LUNDON SOFTWARE, Ohio).

Test [2] deals with T2, oxytocin receptors (Rattus norvegicus, UniProt P70536).
T2 sequence (P70536 1-388): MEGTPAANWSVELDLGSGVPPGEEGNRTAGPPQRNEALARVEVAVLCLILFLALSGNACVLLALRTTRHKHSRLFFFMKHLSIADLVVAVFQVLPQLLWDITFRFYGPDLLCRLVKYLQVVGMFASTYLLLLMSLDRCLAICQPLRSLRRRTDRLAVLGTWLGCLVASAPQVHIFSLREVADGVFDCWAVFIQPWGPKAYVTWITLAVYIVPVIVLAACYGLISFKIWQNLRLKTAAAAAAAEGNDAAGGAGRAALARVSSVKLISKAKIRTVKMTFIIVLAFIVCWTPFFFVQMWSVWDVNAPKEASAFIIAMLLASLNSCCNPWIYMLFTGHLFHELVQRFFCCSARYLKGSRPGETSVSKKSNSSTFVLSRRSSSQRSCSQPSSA
In words: Oxytocin Receptor Binding. The following applies: for IC50: rat uterine membranes, [3H]oxytocin.
Experimental: Female Sprague-Dawley rats weighing approximately 200-250 g are injected intramuscularly (i.m.) with 0.3 mg/kg of body weight of diethylstilbestrol (DES). The rats are sacrificed 18 hours later under pentobarbital anesthesia. The uteri are dissected out, cleaned of fat and connective tissues and rinsed in 50 ml of normal saline. The tissue pooled from six rats is homogenized in 50 ml of 0.01 mM Tris.HCl, containing 0.5 mM dithiothreitol and 1.0 mM EDTA, adjusted to pH 7.4, using a polytron at setting 6 with three passes of 10 sec each. The homogenate is passed through two (2) layers of cheesecloth and the filtrate centrifuged at 1000×g for 10 min. The clear supernatant is removed and recentrifuged at 165,000×g for 30 min. The resulting pellet containing the oxytocin receptors is resuspended in 50.0 mM Tris.HCl containing 5.0 mM MgCl2 at pH 7.4, to give a protein concentration of 2.5 mg/ml of tissue suspension. This preparation is used in subsequent binding assays with [^3 H]Oxytocin.
Binding of 3,5-[^3 H]Oxytocin ([^3 H]OT) to its receptors is done in microtiter plates using [^3 H]OT, at various concentrations, in an assay buffer of 50.0 mM Tris.HCl, pH 7.4 and containing 5.0 mM MgCl2, and a mixture of protease inhibitors: BSA, 0.1 mg; aprotinin, 1.0 mg; 1,10-phenanthroline, 2.0 mg; trypsin, 10.0 mg; and PMSF, 0.3 mg per 100 ml of buffer solution. Non-specific binding is determined in the presence of 1.0 uM unlabeled OT. The binding reaction is terminated after 60 min., at 220° C., by rapid filtration through glass fiber filters using a Brandel® cell harvester (Bio-medical Research and Development Laboratories, Inc., Gaithersburg, Md.). Competition experiments are conducted at equilibrium using 1.0 nM [^3 H]OT and varying the concentration of the displacing agents. The concentrations of agent displacing 50% of [^3 H]OT at its sites (IC50) are calculated by a computer assisted LUNDON-2 program (LUNDON SOFTWARE INC., Ohio, USA).

T1 sequence (Q00788 whole entry): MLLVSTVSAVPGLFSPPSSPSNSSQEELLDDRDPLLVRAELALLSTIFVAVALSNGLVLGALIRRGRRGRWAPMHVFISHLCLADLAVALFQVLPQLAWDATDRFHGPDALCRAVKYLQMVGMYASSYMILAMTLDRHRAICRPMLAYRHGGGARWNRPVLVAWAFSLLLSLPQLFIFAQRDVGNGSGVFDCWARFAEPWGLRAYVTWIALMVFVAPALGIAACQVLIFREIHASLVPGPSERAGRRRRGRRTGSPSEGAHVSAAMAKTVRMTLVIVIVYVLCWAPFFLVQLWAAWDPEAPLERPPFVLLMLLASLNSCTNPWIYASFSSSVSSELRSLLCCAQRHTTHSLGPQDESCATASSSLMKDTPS

By inhibition is commonly meant the relative decrease from the control value, in per cent. High values mean strong suppression, low ones little suppression. What is called IC50 is the concentration at which inhibition is half-maximal. In test [1], `CC(C)(C)CCNc1ccc(C(=O)N2Cc3cccn3Cc3ccccc32)cn1` [Example 262] displayed an inhibition at 1 µM of 50%. Also, in test [2] (dose 10 μM), the inhibition at 10 µM was 76%. In test [2], this molecule showed a half-inhibitory concentration (IC50) of 1600 nM.
As to `O=C(Nc1ccc(C(=O)N2Cc3cccn3Cc3ccccc32)cn1)c1ccccc1[N+](=O)[O-]` [Example 43], 10 µM produced 99% inhibition in test [2] (dose 10 μM). The same molecule showed an IC50 in test [2] of 920 nM.
Molecule `O=C(Nc1ccc(C(=O)N2Cc3cccn3Cc3ccccc32)cn1)c1ccccc1-c1ccccc1` [Example 10] yielded an inhibition at 1 µM in test [1] of 95%.
For the molecule `O=C(Nc1ccc(C(=O)N2Cc3cccn3Cc3ccccc32)cc1)c1cccnc1Oc1ccc(Cl)cc1` [Example 346, N-[4-(5H-Pyrrolo[2,1-c][1,4]benzodiazepin-10(11H)-ylcarbonyl)phenyl]-2-(4-chlorophenyloxy)pyridine-3-carboxamide], in test [1], at 10 µM the inhibition was 76%. Moreover, in test [2], 1 µM produced 0% inhibition.
With `O=C(Nc1ccc(C(=O)N2Cc3cccn3Cc3ccccc32)cn1)c1cc(Cl)ccc1Cl` [Example 14], in test [1], the inhibition at 1 µM came to 99%. The molecule further showed an inhibition at 10 µM in test [2] (dose 10 μM) of 96%. The molecule also had an IC50 in test [2] of 580 nM.
`O=C(Nc1ccc(C(=O)N2Cc3cccn3Cc3ccccc32)cc1)c1cccnc1N1CCCCC1` [Example 336, N-[4-(5H-Pyrrolo[2,1-c][1,4]benzodiazepin-10(11H)-ylcarbonyl)phenyl]-2-(1-piperidinyl)-pyridine-3-carboxamide] came in with an inhibition at 1 µM in test [1] of 69%. For the same molecule, in test [2] (dose 10 μM), the inhibition at 10 µM was 94%. Further, the half-maximal inhibitory concentration (IC50) in test [2] was determined as 1630 nM.
The molecule `Cc1ccc(F)cc1C(=O)Nc1ccc(C(=O)N2Cc3cccn3-c3ccccc32)cn1` [Example 171, N-[5-(Pyrrolo[1,2-a]quinoxalin-5(4H)-ylcarbonyl)-2-pyridinyl]-5-fluoro-2-methylbenzamide] gave an inhibition at 10 µM in test [2] (dose 10 μM) of 73%. In test [2], this molecule gave a half-maximal inhibitory concentration (IC50) of 1100 nM.
As for `O=C(Nc1ccc(C(=O)N2Cc3cccn3Cc3ccccc32)cn1)c1ccc(F)cc1F` [Example 7], the inhibition at 10 µM in test [1] came out at 58%; in test [2] (dose 10 μM), 66%.
On to `Cc1ccccc1Nc1ccc(C(=O)N2Cc3cccn3Cc3ccccc32)cn1` [Example 301, 10,11-Dihydro-10-[[6-[(2-methylphenyl)amino]-3-pyridinyl]carbonyl]-5H-Pyrrolo[2,1-c][1,4]benzodiazepine], for which the inhibition at 10 µM in test [1] came out at 91%; in test [2] (dose 10 μM), 89%. For the same molecule, the IC50 in test [2] is 860 nM.
Consider `O=C(Nc1ccc(C(=O)N2Cc3cccn3Cc3ccccc32)cn1)c1c(F)cccc1Cl` [Example 18], for which, in test [1], the inhibition at 1 µM was found to be 94%. In test [2] (dose 5 μM), the inhibition at 5 µM was 97%. In test [2], this molecule yielded an IC50 of 310 nM.
Regarding `Nc1ccccc1C(=O)Nc1ccc(C(=O)N2Cc3cccn3Cc3ccccc32)cn1` [Example 354, N-[5-(5H-Pyrrolo[2,1-c][1,4]benzodiazepin-10(11H)-ylcarbonyl)-2-pyridinyl]-2-aminobenzamide], the values for the inhibition at 1 µM in test [1] and in test [2] were 86% and 7%, respectively.
In the case of `O=C(Nc1ccc(C(=O)N2Cc3cccn3Cc3ccccc32)c(Cl)c1)c1ccccc1-c1ccc(C(F)(F)F)cc1` [Example 326], the inhibition at 10 µM in test [1] came to 91%. In test [2], testing at 1 µM gave an inhibition of 0%.
The corresponding values for `Cc1ccc(F)cc1C(=O)Nc1ccc(C(=O)N2Cc3cccn3-c3ncccc32)cn1` [Example 134, N-[5-(Pyrido[3,2-e]pyrrolo[1,2-a]pyrazin-5(6H)-ylcarbonyl)-2-pyridinyl]-5-fluoro-2-methylbenzamide] are 94% and 63%.
Take `Cc1ncccc1C(=O)Nc1ccc(C(=O)N2Cc3cccn3Cc3ccccc32)cn1` [Example 330, N-[5-(5H-Pyrrolo[2,1-c][1,4]benzodiazepin-10(11H)-ylcarbonyl]-2-pyridinyl]-2-methylpyridine-3-carboxamide Hydrochloride]: in test [1], the inhibition at 1 µM worked out at 79%. Further, the “Oxytocin Binding Assay % Inhibition” value in test [2] (dose 10 μM, Hydrochloride) stood at 93%. Further, in test [2] (Hydrochloride), the IC50 came out at 990 nM.
As for `Cc1ccccc1CNc1ccc(C(=O)N2Cc3cccn3Cc3ccccc32)cn1` [Example 274], 10 µM produced 97% inhibition in test [1].
In turn, `Cc1ccc(F)cc1C(=O)N(CCCN(C)C)c1ccc(C(=O)N2Cc3cccn3Cc3ccccc32)cn1` [Example 131, N-[3-(Dimethylamino)propyl]-N-[5-(5H-pyrrolo[2,1-c][1,4]benzodiazepin-10(11H)-ylcarbonyl)-2-pyridinyl]-5-fluoro-2-methylbenzamide] had an inhibition at 1 µM in test [1] of 82%. The inhibition at 10 µM in test [2] (dose 10 μM) is 60%.
For `O=C(Nc1ccc(C(=O)N2Cc3cccn3Cc3ccccc32)cn1)c1cc(Br)ccc1Cl` [Example 11], the inhibition at 1 µM in test [1] is 93%.
In turn, `Cc1occc1C(=O)Nc1ccc(C(=O)N2Cc3cccn3Cc3ccccc32)cn1` [Example 353, N-[5-(5H-Pyrrolo[2,1-c][1,4]benzodiazepine-10(11H)-ylcarbonyl)-2-pyridinyl]-2-methylfurane-3-carboxamide] registered an inhibition at 1 µM in test [1] of 86%. Further, the inhibition at 10 µM in test [2] (dose 10 μM) came to 83%. This molecule returned an IC50 in test [2] of 2050 nM.
On to `Cc1ccc(F)cc1C(=O)N(CCN(C)C)c1ccc(C(=O)N2Cc3cccn3Cc3ccccc32)cn1` [Example 130, N-[2-(Dimethylamino)ethyl]-N-[5-(5H-pyrrolo[2,1-c][1,4]benzodiazepin-10(11H)-ylcarbonyl)-2-pyridinyl]-5-fluoro-2-methylbenzamide], for which the inhibition at 10 µM in test [1] came to 92%; in test [2] (dose 10 μM), 57%.
In the case of `CC(C)CNc1ccc(C(=O)N2Cc3cccn3Cc3ccccc32)cn1` [Example 261, 10-[[6-[(2-Methylpropyl)amino]-3-pyridinyl]carbonyl]-10,11-dihydro-5H-pyrrolo[2,1-c][1,4]benzodiazepine], in test [1], the inhibition at 1 µM is 32% and at 10 µM the inhibition was 55%. The IC50 in test [2] was 150 nM.
Regarding `COc1ccc(CNc2ccc(C(=O)N3Cc4cccn4Cc4ccccc43)cn2)c(OC)c1` [Example 351], the inhibition at 1 µM in test [1] turned out to be 56%; in test [2], 0%.
Consider `Cc1ccc(F)cc1C(=O)Nc1ccc(C(=O)N2Cc3ccc(CN(C)C)n3Cc3ccccc32)cn1` [Example 120, N-[5-[[3-[(Dimethylamino)methyl]-[5H-pyrrolo[2,1-c][1,4]benzodiazepin-10(11H)]-yl]carbonyl]-2-pyridinyl]-5-fluoro-2-methylbenzamide], for which the inhibition at 1 µM in test [2] amounted to 8%.
The molecule `O=C(Nc1ccc(C(=O)N2Cc3cccn3Cc3ccccc32)cc1)c1cccnc1N1CCOCC1` [Example 339, N-[4-(5H-Pyrrolo[2,1-c][1,4]benzodiazepin-10(11H)-ylcarbonyl)phenyl]-2-(morpholino)-pyridine-3-carboxamide] gave an inhibition at 1 µM in test [1] of 55%. In addition, the inhibition at 10 µM in test [2] (dose 10 μM) is 48%. The IC50 in test [2] turned out to be 8560 nM.
In the case of `CNc1ncccc1C(=O)Nc1ccc(C(=O)N2Cc3cccn3Cc3ccccc32)cc1` [Example 334, N-[4-(5H-Pyrrolo[2,1-c][1,4]benzodiazepin-10(11H)-ylcarbonyl)phenyl]-2-(methylamino)pyridine-3-carboxamide], the inhibition at 1 µM was found to be 79% in test [1] and 5% in test [2].
In test [2], `CCCCOc1ccc(C(=O)N2Cc3cc(CO)nn3Cc3ccccc32)cc1` [Example 344, 5,10-Dihydro-2-hydroxymethyl-5-(4-(4-butyloxy)benzoyl)-4H-pyrazolo[5,1-c][1,4]benzodiazepine] yielded an inhibition at 1 µM of 58% and an IC50 of 3800 nM.
